Reference: US20230270743A1, “USE OF BTK INHIBITORS IN THE TREATMENT OF DISEASES” (JIANGSU HENGRUI PHARMACEUTICALS CO., LTD., priority 2020, published 2023)

Tested on: patients diagnosed with AQP4-IgG positive NMOSD
Test: Clinical research of the compound of formula (I) in treating neuromyelitis optica spectrum disorder (NMOSD)
Assay type: in vivo, human
Description: Average annualized relapse rate (ARR)=total number of episodes of subjects/(number of subjects*observation time).
Example 1: Clinical Research of the Compound of Formula (I) in Treating Neuromyelitis Optica Spectrum Disorder (NMOSD)
Tablets of the compound of formula (I), specification: 100 mg/tablet.
1) Male or female from 18 to 75 years old (including 18 and 75 years old);
2) Patients diagnosed with AQP4-IgG positive NMOSD according to the 2015 IPND diagnostic criteria;
3) Requirements for history of relapse: 2 or more relapses of NMOSD requiring rescue therapy within 1 year before baseline, the rescue therapy can include IV glucocorticoid, plasma exchange, and/or intravenous immune globulin (IVIG);
4) Subjects must have been on stable treatment (if any) for more than 1 month before starting test drug treatment, defined as follows: • the amount of immunosuppressant (such as tacrolimus, azathioprine, mycophenolate) and/or oral corticosteroid must be stable or in the process of reduction, and the acute phase rescue therapy (such as IV glucocorticoid, plasma exchange, and/or intravenous immunoglobulin) must be completed for more than 1 month.
The test drug was administered to the qualified subjects in the morning on an empty stomach, once a day, one tablet at a time, and 100 mg per tablet.
At present, the study has completed the enrollment of all 10 subjects, and the average annualized relapse rate (ARR=the total number of episodes of subjects/(number of subjects*observation time)) of all subjects before enrollment was 2.1. By now, an annualized relapse rate of 0.7 for existing subjects after baseline medication has been observed. A patient with a 7-year history of NMOSD had severe symptoms (unable to stand) before participating in the trial. […] At the 7th week of medication, the patient could walk more than 20 meters with assistance, and could substantially take care of themself.

SMILES: CC#CC(=O)N1CC[C@@H](n2cc(-c3ccc(Oc4c(F)cccc4F)cc3)c3c(N)n[nH]c(=O)c32)C1 [compound of formula (I), (R)-4-amino-1-(1-(but-2-ynoyl)pyrrolidin-3-yl)-3-(4-(2,6-difluorophenoxy)phenyl)-1,6-dihydro-7H-pyrrolo[2,3-d]pyridazin-7-one]
- annualized relapse rate (ARR) after baseline medication (AQP4-IgG positive NMOSD subjects (10 enrolled), 100 mg tablet once a day, morning, empty stomach, average ARR before enrollment was 2.1, interim (by now)): 0.7
- mobility of patient (patient, 7-year history of NMOSD, unable to stand before trial, after 4 weeks of administration, could stand up and walk several steps with assistance): significantly improved mobility
- walking distance with assistance (same patient, at the 7th week of medication, could substantially take care of themself): more than 20 meters
